The values below are quoted from earlier work in US20020004584A1, “HIV immune adjuvant therapy” (priority 2000, published 2002).

One data set deals with HIV-1. Conditions: preclinical studies.
The conditions of data set [1]: in vivo.
For data set [2] the following is noted: in vivo. The source holds these as a separate data set.

In the case of `NC(=O)NO` [Hydroxyurea], in the data set with HIV-1, the “effect on the activity of didanosine” value is “synergistic effect”.
For `CC(C)(C)NC(=O)[C@@H]1C[C@@H]2CCCC[C@@H]2CN1C[C@@H](O)[C@H](Cc1ccccc1)NC(=O)[C@H](CC(N)=O)NC(=O)c1ccc2ccccc2n1` [saquinavir], the bioavailability entry in data set [1] is recorded as “poor bioavailability”.
In the case of `CC(C)c1nc(CN(C)C(=O)N[C@H](C(=O)N[C@@H](Cc2ccccc2)C[C@H](O)[C@H](Cc2ccccc2)NC(=O)OCc2cncs2)C(C)C)cs1` [Ritonavir, ritonavir], the adverse effects entry in data set [2] is listed as “troublesome adverse effects”.
